Experimental data published in US10696973B2, “Inducible eukaryotic expression system” (Regeneron Pharmaceuticals, Inc., priority 2002, dated 2020).

How the values were obtained:
Format in all cases: cell-based
[1] = target: T1, Arc2-ERLBDT2 fusion protein (Homo sapiens, UniProt P03372, G400V/L544A/M543A); assay: Time course of 13SC1132 induction in clone C110 after removal of OHT, mean fluorescence of cell surface-displayed protein; conditions: clone C110 grown in 200 nM OHT, then washed; measured 3, 6 and 9 days after removal
T1 construct: expressed in transfected cells; host or cells: CHO K1/pTE534 cells (A2) or RGC12 cells, a CHO K1 derivative (A3), stably transfected with pTE529
T1 sequence (P03372 with tags, fused parts or gaps G400V/M543A/L544A): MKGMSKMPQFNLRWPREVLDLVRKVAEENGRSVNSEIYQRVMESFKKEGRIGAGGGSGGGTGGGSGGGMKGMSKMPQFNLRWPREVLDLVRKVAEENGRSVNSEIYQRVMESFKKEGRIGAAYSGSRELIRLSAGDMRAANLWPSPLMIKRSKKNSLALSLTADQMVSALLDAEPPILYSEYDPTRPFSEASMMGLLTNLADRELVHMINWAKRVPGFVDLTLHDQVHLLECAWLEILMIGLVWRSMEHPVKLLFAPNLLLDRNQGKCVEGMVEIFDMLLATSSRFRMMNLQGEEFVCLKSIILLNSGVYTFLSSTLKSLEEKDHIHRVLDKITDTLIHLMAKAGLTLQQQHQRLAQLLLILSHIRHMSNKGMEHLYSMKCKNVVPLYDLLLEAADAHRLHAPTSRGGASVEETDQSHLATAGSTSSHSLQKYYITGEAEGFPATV
Procedure: RGC12 cells (2×10^6) were transfected with 5 μg pTE529 encoding the Arc-ERLBDT2 protein driven by a ubiquitin promoter (FIG. 9) using Lipofectamine™ as described above. The cells were placed in the culture medium (10% fetal bovine serum, 90% Ham's F-12, 2 mM L-glutamine; all reagents were from lnvitrogen Life Technologies, Carlsbad, Calif.) containing 10 μg/ml puromycin (CalBiochem) for 14 days. Cells resistant to puromycin, expressing the Arc2-ERLBDT2 fusion protein, were then transfected with pTE689 encoding protein of interest […] (FIG. 8) as described above except the culture medium contained 200 nM OHT. […] Cells that secreted the highest levels of 13SC1132 as measured by 13SC1132 complexed with FcγRI on the cell surface (top 5%) were isolated by flow cytometry on a MOFLO™ cell sorter. Cells were grown in the presence of OHT for 7 days, and treated for screening as described above, but the cells with the lowest 5% cell surface fluorescence were isolated in order to enrich for clones with regulated expression of 13SC1132. Cells were then grown in the absence of OHT, treated for flow cytometry, and single cells with the highest 0.1% fluorescence in this population were isolated, expanded, and screened for 13SC1132 expression in the absence of OHT and tight regulation in the presence of OHT. […]

[2] = target: T2, TetR-ERLBDT2 regulatory fusion protein (UniProt P03372+P04483, G400V/L544A/M543A); assay: hFcγRI expression regulated by TetR-ERLBDT2 in CHO K1-FcR/pTE313 clones, FITC-hFc staining and flow cytometry; conditions: clone D124 (pool C12); OHT present without Dox
T2 construct: 11 amino acid linker […]; expressed in transfected cells; host or cells: CHO K1-FcR cells (CHO K1 with pTE158) stably transfected with pTE313
T2 sequence (P04483+P03372 fused P03372:G400V/P03372:M543A/P03372:L544A): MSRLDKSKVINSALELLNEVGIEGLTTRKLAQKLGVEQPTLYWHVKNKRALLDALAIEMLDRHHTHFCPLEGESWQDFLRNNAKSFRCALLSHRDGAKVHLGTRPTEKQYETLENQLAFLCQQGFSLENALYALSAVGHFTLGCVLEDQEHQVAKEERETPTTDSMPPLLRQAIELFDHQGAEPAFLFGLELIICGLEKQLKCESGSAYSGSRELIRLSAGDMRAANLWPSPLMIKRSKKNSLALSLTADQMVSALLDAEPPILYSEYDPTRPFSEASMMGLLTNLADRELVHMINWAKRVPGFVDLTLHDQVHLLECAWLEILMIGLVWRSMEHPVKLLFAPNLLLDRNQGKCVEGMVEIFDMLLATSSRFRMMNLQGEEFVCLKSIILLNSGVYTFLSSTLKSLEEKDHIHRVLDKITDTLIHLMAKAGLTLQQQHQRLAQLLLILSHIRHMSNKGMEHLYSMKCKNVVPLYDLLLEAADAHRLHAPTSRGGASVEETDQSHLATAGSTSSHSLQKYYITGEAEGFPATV
Procedure: The cells were placed in the culture medium (10% fetal bovine serum, 90% Ham's F-12, 2 mM L-glutamine; all reagents were from Life Technologies, Rockville, Md.) containing 500 G418 (Life Technologies) for 12 days. […] Briefly, cells grown on 10 cm culture plates were washed once with Dulbecco's phosphate-buffered saline (PBS) without calcium chloride and magnesium chloride (Life Technologies). Two milliliters of 0.25% trypsin (Life Technologies) was added to each plate and incubated at 37° C. for 4-5 min. The plates were swirled until the cells detached from the plate. Four milliliters of culture medium was immediately added to each plate of the detached cells. […] Washed cells capable of binding FITC-hFc were measured by flow cytometry on a MOFLO™ cell sorter (Cytomation; Fort Collins, Colo.). […] The total pool of fluorescent cells from the G418-resistant population was collected by flow cytometry, expanded then analyzed by flow cytometry for expression of hFcγRI. […]
Cells were incubated for three days then stained with FITC-hFc to detect the presence of hFcγRI. The top 60% of hFcγRI-positive cells from the culture induced with 1 μg/ml Dox were isolated to yield pool B 11, and cells with the lowest 30% fluorescence were isolated from cells grown in medium without Dox to yield pool B 12. […]

[3] = target: T1, Arc2-ERLBDT2 fusion protein; assay: hFcγRI expression regulated by Arc2-ERLBDT2 in CHO K1/pTE534 cells transfected with pTE529, FITC-hFc staining and flow cytometry
Procedure: CHO K1 cells (2×10^6) were transfected with pTE534 using Lipofectamine™ as described above. The cells were placed in the culture medium (10% fetal bovine serum, 90% Ham's F-12, 2 mM L-glutamine; all reagents were from Invitrogen Life Technologies, Carlsbad, Calif.) containing 400 μg/ml G418 (Invitrogen Life Technologies) for 12 days. Cells resistant to G418 were trypsinized, pooled, and stained with 2 μg/ml of FITC-conjugated human IgG, Fc fragment (FITC-hFc) as described above. […] Cells that expressed hFcγRI bound FITC-hFc and were isolated based on their fluorescence by flow cytometry on a MOFLO™ cell sorter. Cells with the highest 3% fluorescence in this population were isolated, pooled, and expanded. This hFcγRI-positive pool was enriched by repeating the cell surface staining with FITC-hFc and sorting the top 30% most fluorescent cells in the population to yield pool B. Cells in pool B that were among the top 20% expressing hFcγRI were isolated to yield pool C. Pool C2 (CHOK1/pTE534) was used to generate inducible cell lines regulated by Arc-ERLBDT2.
CHO K1/pTE534 cells (2×10^6/dish) were transfected with either pRG985, an empty vector, or pTE529 using Lipofectamine™. […] The cells were stained with FITC-hFc as described above and analyzed by flow cytometry. […] This pool was expanded in the presence of OHT for 10 days, stained for hFcγRI expression and analyzed by flow cytometry. […]

Q: How did the “time after OHT removal until full induction of 13SC1132 expression” value [1] turn out when 4-hydroxytamoxifen [OHT] was run?
A: The value was 6 days.

Q: What about the “level of hFcγRI expression” value [2] of the same substance?
A: Its value is “no detectable level of hFcγRI”.

Q: What about the “level of hFcγRI expression” value ([3]; clone C17, OHT present in the medium) of the same substance?
A: The value was “No detectable level of hFcγRI”.

Q: What about the “cells in pool that did not express hFcγRI” value ([3]; sorted pool expanded in the presence of OHT for 10 days) of the same substance?
A: The value was “Over 70%”.
